In patent publication US6514732B1, “Process for preparing baccatin” (Indena S.p.A., priority 1998, dated 2003):
Entries after “also recorded” stand apart in the source; their conditions may differ.

Columns and labels:
Format in all cases: biochemical, Taxus chinensis
[1] = tested on: acetyl transferase (acetyl CoA 10-hydroxytaxane-O-acetyl transferase); experiment: Substrate specificity of the purified acetyl transferase (conversion of taxane substrates with [2-14C]acetyl CoA); conditions: for Conversion, based on the conversion of 10-deacetyltaxuyunnanin C / pkat (enzyme activity with the substrate): Enzyme: Phenylsepharose eluate (225-fold purified); for acetylation / acceptance as substrate by the enzyme (in words): purified acetyl transferase, acetyl donor acetyl CoA
Method: A sufficient amount of the enzyme solution to be tested was pipetted into 50 μl of tris buffer (0.8 M, pH 8.5) in an Eppendorf cap. 30 μl of purified acetyl CoA (5 nmol of unlabelled and 0.02 μCi-[2-^14C]acetyl coenzyme A) and 15 nmol of a 3 mM stock solution of 10-deacetyltaxuyunnanin C dissolved in DMSO were then added (for the control only the corresponding amount of DMSO instead of this taxane). The mixture was incubated at 35° C. for 30 minutes and then acidified using 20 μl of 12% H2SO4, the taxuyunnanin C formed was extracted using 600 μl of tert-butyl methyl ether (10 min. in an overhead shaker) and the mixture was then centrifuged (4 min at 14,000 rpm in an Eppendorf centrifuge). The unreacted [2-^14C]acetyl CoA which was still present remained in the aqueous phase. 500 μl of the organic phase were evaporated to dryness in a stream of air, which simultaneously removed any [2-^14C]acetic acid present which, owing to the earlier acidification, was present as the acid and was therefore volatile. Using a scintillation counter (Multipurpose Scintillation Counter LS 6500, from Beckmann) or a thin-layer radioscanner (Automatic TLC Linear Analyser, from Berthold), the type and the amount of the product formed were determined. The former apparatus was used to determine the conversion and thus the activity of the enzyme using the cpm values counted. With the aid of thin-layer chromatography (TLC) (mobile phase: chloroform:acetonitrile 7:3) and the subsequent evaluation using a radioscanner, it was possible to check whether the radioactivity measured using the scintillation counter did indeed correspond to a peak in the region of the Rf value of the expected product.
To check the substrate specificity of the purified acetyl transferase, various compounds having a taxane skeleton were used as substrate.
10-DAB is converted with a rate of conversion of 85%, compared to 10-deacetyltaxuyunnanin C to baccatin III.
Conversion of Various Substrates, Based on the Conversion of 10-deacetyltaxuyunnanin C
Enzyme: Phenylsepharose eluate (225-fold purified)

acetyl transferase [2] = experiment: KM value determination for 10-deacetyltaxuyunnanin C (Lineweaver-Burk); conditions: phenylsepharose eluate, 225-fold enriched; 30 min at 35° C., pH 8.5
Method: To gain information about the affinity of the acetyl transferase to 10-deacetyltaxuyunnanin C, the KM value of the phenylsepharose eluate was determined.
100 μl of acetyl-transferase (0.25 pcat, 40 ng of protein, 225-fold enriched)
30 μl of acetyl coenzyme A (5 nmol, additionally containing 0.02 μCi[2-^14C]acetylCoA)
30 min at 35° C.; evaluation of the radioactivity, which had been extracted using tert-butyl methyl ether, using a scintillation counter.
By plotting the measured results in a doubly reciprocal manner according to Lineweaver and Burk, the KM value for 10-deacetyltaxuyunnanin C was determined graphically to be 23 μM.

acetyl transferase [3] = experiment: KM value determination for acetyl coenzyme A (Lineweaver-Burk); conditions: phenylsepharose eluate, 225-fold enriched; 30 min at 35° C., pH 8.5
Method: The affinity of acetyl transferase to acetyl coenzyme A can be described by the KM value, which was determined using the phenylsepharose eluate.
100 μl of acetyl transferase (0.25 pcat, 40 ng of protein, 225-fold enriched)
5 μl of 3 mM 10-deacetyltaxuyunnanin C (15 nmol)
30 min at 35° C. Evaluation was subsequently carried out by extraction with tert-butyl methyl ether and the use of a scintillation counter. By plotting the measured values in a doubly reciprocal manner according to Lineweaver and Burk, the KM value for acetyl coenzyme A was determined at 61 μM.

Row | Compound | Conversion, based on the conversion of 10-deacetyltaxuyunnanin C [1] [%] | pkat (enzyme activity with the substrate) [1] [pkat] | also measured
1 | CC[Si](CC)(CC)O[C@H]1C[C@H]2OC[C@@]2(OC(C)=O)[C@H]2[C@H](OC(=O)c3ccccc3)[C@]3(O)C[C@H](O)C(C)=C([C@@H](O)C(=O)[C@]12C)C3(C)C [7-TES-10-DAB III] | 0 | 0 | acetylation / acceptance as substrate by the enzyme (in words) [1]: not recognized as substrates
2 | CC(=O)O[C@@]12CO[C@@H]1C[C@H](O)[C@@]1(C)C(=O)[C@H](O)C3=C(C)[C@@H](O)C[C@@](O)([C@@H](OC(=O)c4ccccc4)[C@H]21)C3(C)C [10-Desacetylbaccatin III, 10-deacetylbaccatin III] | 80 | 0.9 | Conversion, based on the conversion of 10-deacetyltaxuyunnanin C ([1]; listed as 10-DAB): 85%
3 | CC=C(C)C(=O)NC(c1ccccc1)C(O)C(=O)OC1CC2(O)C(OC(=O)c3ccccc3)C3C4(OC(C)=O)COC4CC(O)C3(C)C(=O)C(O)C(=C1C)C2(C)C (centres unmarked) [10-deacetylcephalomannin] | – | – | acetylation / acceptance as substrate by the enzyme (in words) [1]: not acetylated; also recorded: acetylation does not take place
4 | CC(=O)O[C@@]12CO[C@@H]1C[C@H](O)[C@@]1(C)C(=O)[C@H](O)C3=C(C)[C@@H](OC(=O)[C@H](O)[C@@H](NC(=O)c4ccccc4)c4ccccc4)C[C@@](O)([C@@H](OC(=O)c4ccccc4)[C@H]21)C3(C)C [10-deacetyltaxol] | – | – | acetylation / acceptance as substrate by the enzyme (in words) [1]: not acetylated; also recorded: acetylation does not take place
5 | CC(=O)OC12COC1CC(O)C1(C)C(=O)C(O)C3=C(C)C(O)CC(O)(C(OC(=O)c4ccccc4)C21)C3(C)C (stereo not drawn) [10-epi-10-DAB III] | 0 | 0 | –
6 | CC(=O)O[C@@]12CO[C@@H]1C[C@H](O)[C@@]1(CO)C(=O)[C@H](O)C3=C(C)[C@@H](O)C[C@@](O)([C@@H](OC(=O)c4ccccc4)[C@H]21)C3(C)C [19-Hydroxy-10-DAB III, 19-hydroxy-10-DAB III] | 38 | 0.43 | –
7 | CC(=O)SCCNC(=O)CCNC(=O)[C@H](O)C(C)(C)COP(=O)(O)OP(=O)(O)OC[C@H]1O[C@@H](n2cnc3c(N)ncnc32)[C@H](O)[C@@H]1OP(=O)(O)O [acetyl coenzyme A] | – | – | Km (acetyl transferase [3]): 61 µM

More lines, main results first:

Row | Conversion, based on the conversion of 10-deacetyltaxuyunnanin C [1] [%] | pkat (enzyme activity with the substrate) [1] [pkat] | Compound | also measured
8 | 81 | 0.91 | 2,10,14-deacetyltaxuyunnanin C [2,10,14-Desacetyltaxuyunnanin C] | –
9 | 102 | 1.14 | 10,14-deacetyltaxuyunnanin C [10,14-Desacetyltaxuyunnanin C] | –
10 | 53 | 0.59 | C=C1C(O)CCC2(C)CC(O)C3=C(C)CC(O)C(C(O)C12)C3(C)C (centres unmarked) [2,5,10,14-Desacetyltaxuyunnanin C, 2,5,10,14-deacetyltaxuyunnanin C] | –
11 | 88 | 0.99 | C=C1C(O)CCC2(C)CC(O)C3=C(C)CC(O)C(C(OC(C)=O)C12)C3(C)C (centres unmarked) [5,10,14-Desacetyltaxuyunnanin C, 5,10,14-deacetyltaxuyunnanin C] | –
12 | 2 | 2 | CC(=O)O[C@@]12CO[C@@H]1C[C@H](OC(=O)OC(C)(C)C)[C@@]1(C)C(=O)[C@H](O)C3=C(C)[C@@H](O)C[C@@](O)([C@@H](OC(=O)c4ccccc4)[C@H]21)C3(C)C [7-BOC-10-DAB III] | acetylation / acceptance as substrate by the enzyme (in words) [1]: not recognized as substrates
13 | 100 | 1.12 | C=C1[C@@H](OC(C)=O)CC[C@@]2(C)C[C@H](O)C3=C(C)C[C@H](OC(C)=O)[C@@H]([C@@H](OC(C)=O)[C@H]12)C3(C)C [10-Desacetyltaxuyunnanin C, 10-deacetyltaxuyunnanin C] | Km (acetyl transferase [2]): 23 µM
14 | 97 | 1.09 | CC(=O)OC12COC1CC(O)C1(C)C(=O)C(O)C3=C(C)C(O)C(O)C(O)(C(OC(=O)c4ccccc4)C21)C3(C)C (centres unmarked) [14-Hydroxy-10-DAB III, 14-hydroxy-10-deacetylbaccatin III] | –
